Bridge positions count the residues as written; N and C are the ends. Square brackets hold non-standard residues; d marks the D form. Peptide text beside a SMILES is read from it. Phe(4-CF3) = N[C@@H](Cc1ccc(C(F)(F)F)cc1)C(=O)O; Bip = N[C@@H](Cc1ccc(-c2ccccc2)cc1)C(=O)O; NMeF = CN[C@@H](Cc1ccccc1)C(=O)O; NMeE = CN[C@@H](CCC(=O)O)C(=O)O; NMeA = CN[C@@H](C)C(=O)O
The molecules below were run against human PCSK9 (Homo sapiens, UniProt Q8NBP7) (assay: PCSK9 ligand binding assay (TR-FRET): interference with binding of human PCSK9 to human LDLR). Conditions: PCSK9 FRET assay, efficacy (Amax); 0% = DMSO, 100% = 1 uM unlabeled human PCSK9.
Method: The activity of cyclic polypeptides according to the disclosure as PCSK9 can be assessed using a time resolved fluorescence resonance energy transfer (TR-FRET) assay. This time resolved fluorescence resonance energy transfer (TR-FRET) assay measures the ability of a cyclic polypeptides of the disclosure to interfere with the binding of human PCSK9 to human LDLR, providing measures of both potency (IC50) and efficacy (Amax).
Solutions of varying concentrations are prepared by diluting a cyclic polypeptide of the disclosure in dimethylsulfoxide (DMSO) and the resulting solutions are pipetted into a plate. DMSO is used as a negative control. An intermediate plate is prepared in by transferring a known amount of each polypeptide solution and of the control from the compound plate into a corresponding well containing assay buffer and mixing thoroughly. A third plate is then prepared to be used for the assay by adding Human PCSK9 Alexa Fluor 647, followed by a known amount of each solution from the intermediate plate. Unlabeled human PCSK9 in assay buffer containing DMSO is used as a positive control for the assay. Following incubation, Human LDLR extracellular domain-Europium Kryptate is added to each well of the assay plate and the resulting mixture is incubated for an additional period of time. The TR-FRET signal is measured and the FRET ratio (FRET/Europium) is used to calculate the IC50 and Amax of the cyclic polypeptides.
The PCSK9 binding of the cyclic polypeptides of the disclosure were measured using a time resolved fluorescence resonance energy transfer (TR-FRET) assay. This time resolved fluorescence resonance energy transfer (TR-FRET) assay measures the ability of a cyclic polypeptide of the disclosure to interfere with the binding of human PCSK9 to human LDLR, providing measures of both potency (IC50) and efficacy (Amax).
• Human PCSK9 • Human PCSK9 Alexa Fluor 647 • Human LDLR extracellular domain-Europium Kryptate • Proxi plate-low volume assay plate (PerkinElmer #6008280) • Greiner V-bottom (Greiner BioOne #781280) • Assay Buffer • 20 mM HEPES, pH 7.5 • 150 mM NaCl • 1 mM CaCl2 • 0.01% v/v Tween20 • 0.01% w/v BSA
A master compound plate was prepared in a Greiner V bottom plate by diluting cyclic polypeptides of the disclosure in dimethylsulfoxide to the correct concentration for the desired top concentration based on the desired final concentration: for a 30 uM final concentration the master plate concentration is 1.5 mM (68 uL DMSO+12 uL 10 mM of a cyclic polypeptide of the disclosure), for a 10 uM final concentration the master plate concentration is 0.5 mM (76 uL DMSO+4 uL 10 mM of a cyclic polypeptide of the disclosure), for a 3 uM final concentration the master plate concentration is 150 uM (69 uL DMSO+1 uL 10 mM a cyclic peptide of the disclosure). These solutions were pipetted into columns 1 and 11 of the compound plate. Threefold serial dilutions were generated in columns 2-10 and 12-20 of the compound plate by transferring 10 uL into 20 μL of DMSO. Columns 21 and 22 of the compound plate were negative controls containing DMSO alone.
An intermediate plate was generated in a Greiner V bottom plate by transferring 8 uL from each well of the master plate into a corresponding well containing 92 μL of assay buffer and mixing thoroughly.
A Proxi plate-low volume assay plate was used for the assay. To all wells of the plate was added 10 μL of 16 nM Human PCSK9 Alexa Fluor 647, followed by 5 uL from the intermediate plate. […] Following a 30 minute incubation, 5 μL of 4 nM Human LDLR extracellular domain-Europium Kryptate was added and the mixture was incubated for an additional 2 hours.
The TR-FRET signal was measured on an EnVision or PheraStar instrument with a […] delay, 330 nm excitation and 665 nm emission (FRET), and 330 nm excitation and 615 nm (Europium). The FRET ratio (FRET/Europium) was used for calculations. […]

human PCSK9, sequence (Q8NBP7 153-692): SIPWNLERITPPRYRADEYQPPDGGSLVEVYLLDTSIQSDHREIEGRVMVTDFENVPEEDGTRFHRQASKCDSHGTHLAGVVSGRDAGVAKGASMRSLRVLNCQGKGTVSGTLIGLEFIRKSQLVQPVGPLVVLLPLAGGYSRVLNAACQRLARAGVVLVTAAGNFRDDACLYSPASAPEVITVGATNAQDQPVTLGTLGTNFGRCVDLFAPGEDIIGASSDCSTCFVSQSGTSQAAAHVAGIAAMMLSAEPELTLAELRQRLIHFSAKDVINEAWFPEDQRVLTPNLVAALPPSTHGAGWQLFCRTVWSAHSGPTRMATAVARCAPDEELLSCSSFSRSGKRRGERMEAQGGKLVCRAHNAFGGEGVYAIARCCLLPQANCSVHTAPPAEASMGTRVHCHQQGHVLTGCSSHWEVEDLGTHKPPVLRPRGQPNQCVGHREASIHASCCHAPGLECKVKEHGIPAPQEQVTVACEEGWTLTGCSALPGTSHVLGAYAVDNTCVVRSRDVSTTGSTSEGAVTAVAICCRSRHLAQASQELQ
human PCSK9, sequence (Q8NBP7 31-152 partner limits assumed): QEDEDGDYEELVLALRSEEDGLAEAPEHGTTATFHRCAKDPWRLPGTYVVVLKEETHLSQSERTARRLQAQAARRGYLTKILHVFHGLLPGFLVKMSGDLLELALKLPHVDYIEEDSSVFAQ

Compound	Maximum % inhibition [%]
CC(C)[C@@H]1NC(=O)[C@H](Cc2ccccc2)NC(=O)CSC[C@@H](C(=O)NCC(N)=O)NC(=O)[C@@H]2CCCN2C(=O)[C@H](CO)NC(=O)[C@H](CC(N)=O)NC(=O)[C@H](CCC(=O)O)N(C)C(=O)[C@H](Cc2ccc(-c3ccccc3)cc2)NC(=O)[C@H](Cc2ccccc2)N(C)C(=O)[C@H](CO)NC(=O)[C@H]([C@@H](C)O)NC(=O)[C@H]([C@@H](C)O)NC(=O)[C@H](CC(=O)O)NC1=O [Example 1-1] ({CH2CO}-FVDTTS[NMeF][Bip][NMeE]NSPCG-NH2; thioether N-13)	65
CC(C)[C@@H]1NC(=O)[C@H](Cc2ccccc2)NC(=O)CSC[C@@H](C(=O)NCC(N)=O)NC(=O)[C@@H]2CCCN2C(=O)[C@H](CCCNC(=N)N)NC(=O)[C@H](CC(=O)O)NC(=O)[C@H](C)N(C)C(=O)[C@H](Cc2ccc(-c3ccccc3)cc2)NC(=O)[C@H](C)N(C)C(=O)[C@H](Cc2ccc(-c3ccccc3)cc2)NC(=O)[C@H]([C@@H](C)O)NC(=O)[C@H]([C@@H](C)O)NC(=O)[C@H](CO)NC1=O [Example 1-2, Ac*-F-V-S-T-T-B-(N-Me)A-B-(N-Me)A-D-R-P-C*-G-NH2]	41
CC(C)[C@@H]1NC(=O)[C@H](Cc2ccccc2)NC(=O)CSC[C@@H](C(=O)NCC(N)=O)NC(=O)[C@@H]2CCCN2C(=O)[C@H](CO)NC(=O)[C@H](CC(N)=O)NC(=O)[C@H](C)N(C)C(=O)[C@H](Cc2ccc(-c3ccccc3)cc2)NC(=O)[C@H](Cc2ccccc2)N(C)C(=O)[C@H](CO)NC(=O)[C@H]([C@@H](C)O)NC(=O)[C@H]([C@@H](C)O)NC(=O)[C@H](CC(=O)O)NC1=O [Example 1-3, Ac*-F-V-D-T-T-S-(N-Me)F-B-(N-Me)A-N-S-P-C*-G-NH2] ({CH2CO}-FVDTTS[NMeF][Bip][NMeA]NSPCG-NH2; thioether N-13)	55
CC(C)[C@@H]1NC(=O)[C@H](Cc2ccccc2)NC(=O)CSC[C@@H](C(=O)NCC(N)=O)NC(=O)[C@@H]2CCCN2C(=O)[C@H](Cc2cnc[nH]2)NC(=O)[C@H](CC(N)=O)NC(=O)[C@H](C)N(C)C(=O)[C@H](Cc2ccc(-c3ccccc3)cc2)NC(=O)[C@H](C)N(C)C(=O)[C@H](Cc2ccc(O)cc2)NC(=O)[C@H]([C@@H](C)O)NC(=O)[C@H](CO)NC(=O)[C@H](CC(=O)O)NC1=O [Example 1-4, Ac*-F-V-D-S-T-Y-(N-Me)A-B-(N-Me)A-N-H-P-C*-G-NH2] ({CH2CO}-FVDSTY[NMeA][Bip][NMeA]NHPCG-NH2; thioether N-13)	60
CC(C)[C@@H]1NC(=O)[C@H](Cc2ccccc2)NC(=O)CSC[C@@H](C(=O)NCC(N)=O)NC(=O)[C@@H]2CCCN2C(=O)[C@H](CO)NC(=O)[C@H](CCC(=O)O)NC(=O)[C@H](C)N(C)C(=O)[C@H](Cc2ccc(-c3ccccc3)cc2)NC(=O)[C@H](Cc2ccccc2)N(C)C(=O)[C@H](CO)NC(=O)[C@H]([C@@H](C)O)NC(=O)[C@H]([C@@H](C)O)NC(=O)[C@H](CC(=O)O)NC1=O [Example 1-5, Ac*-F-V-D-T-T-S-(N-Me)F-B-(N-Me)A-E-S-P-C*-G-NH2] ({CH2CO}-FVDTTS[NMeF][Bip][NMeA]ESPCG-NH2; thioether N-13)	95
CC(C)[C@@H]1NC(=O)[C@H](Cc2ccccc2)NC(=O)CSC[C@@H](C(=O)NCC(N)=O)NC(=O)[C@@H]2CCCN2C(=O)[C@H](CO)NC(=O)[C@H](CCC(=O)O)NC(=O)[C@H](C)N(C)C(=O)[C@H](Cc2ccc(C(F)(F)F)cc2)NC(=O)[C@H](Cc2ccccc2)N(C)C(=O)[C@H](CO)NC(=O)[C@H]([C@@H](C)O)NC(=O)[C@H]([C@@H](C)O)NC(=O)[C@H](CC(=O)O)NC1=O [Example 1-6, Ac*-F-V-D-T-T-S-(N-Me)F-(p-CF3)F-(N-Me)A-E-S-P-C*-G-NH2] ({CH2CO}-FVDTTS[NMeF][Phe(4-CF3)][NMeA]ESPCG-NH2; thioether N-13)	97
CC(C)[C@@H]1NC(=O)[C@H](Cc2ccccc2)NC(=O)CSC[C@@H](C(=O)NCC(N)=O)NC(=O)[C@@H]2CCCN2C(=O)[C@H](CO)NC(=O)[C@H](CCCCN)NC(=O)[C@H](C)N(C)C(=O)[C@H](Cc2ccc(-c3ccccc3)cc2)NC(=O)[C@H](C)N(C)C(=O)[C@H](CO)NC(=O)[C@H]([C@@H](C)O)NC(=O)[C@H]([C@@H](C)O)NC(=O)[C@H](CC(=O)O)NC1=O [Example 1-7, Ac*-F-V-D-T-T-S-(N-Me)A-B-(N-Me)A-K-S-P-C*-G-NH2] ({CH2CO}-FVDTTS[NMeA][Bip][NMeA]KSPCG-NH2; thioether N-13)	60
CC(C)[C@@H]1NC(=O)[C@H](Cc2ccccc2)NC(=O)CSC[C@@H](C(=O)NCC(N)=O)NC(=O)[C@@H]2CCCN2C(=O)[C@H](CO)NC(=O)[C@H](CC(=O)O)NC(=O)[C@H](C)N(C)C(=O)[C@H](Cc2ccc(-c3ccccc3)cc2)NC(=O)[C@H](C)N(C)C(=O)[C@H](Cc2ccc(-c3ccccc3)cc2)NC(=O)[C@H]([C@@H](C)O)NC(=O)[C@H]([C@@H](C)O)NC(=O)[C@H](CO)NC1=O [Example 1-8, Ac*-F-V-S-T-T-B-(N-Me)A-B-(N-Me)A-D-S-P-C*-G-NH2] ({CH2CO}-FVSTT[Bip][NMeA][Bip][NMeA]DSPCG-NH2; thioether N-13)	58
CC(C)[C@@H]1NC(=O)[C@H](Cc2ccccc2)NC(=O)CSC[C@@H](C(=O)NCC(N)=O)NC(=O)[C@@H]2CCCN2C(=O)[C@H](CCCNC(=N)N)NC(=O)[C@H](CC(=O)O)NC(=O)[C@H](C)N(C)C(=O)[C@H](Cc2ccc(-c3ccccc3)cc2)NC(=O)[C@H](Cc2ccccc2)N(C)C(=O)[C@H](CO)NC(=O)[C@H]([C@@H](C)O)NC(=O)[C@H]([C@@H](C)O)NC(=O)[C@H](CO)NC1=O [Example 1-9, Ac*-F-V-S-T-T-S-(N-Me)F-B-(N-Me)A-D-R-P-C*-G-NH2] ({CH2CO}-FVSTTS[NMeF][Bip][NMeA]DRPCG-NH2; thioether N-13)	35
CC(C)[C@@H]1NC(=O)[C@H](Cc2ccccc2)NC(=O)CSC[C@@H](C(=O)NCC(N)=O)NC(=O)[C@@H]2CCCN2C(=O)[C@H](CO)NC(=O)[C@H](CCC(=O)O)NC(=O)[C@H](C)N(C)C(=O)[C@H](Cc2ccc(-c3ccccc3)cc2)NC(=O)[C@H](C)N(C)C(=O)[C@H](Cc2ccc(-c3ccccc3)cc2)NC(=O)[C@H]([C@@H](C)O)NC(=O)[C@H]([C@@H](C)O)NC(=O)[C@H](CC(=O)O)NC1=O [Example 1-10, Ac*-F-V-D-T-T-B-(N-Me)A-B-(N-Me)A-E-S-P-C*-G-NH2] ({CH2CO}-FVDTT[Bip][NMeA][Bip][NMeA]ESPCG-NH2; thioether N-13)	90
CC(C)[C@@H]1NC(=O)[C@H](Cc2ccccc2)NC(=O)CSC[C@@H](C(=O)NCC(N)=O)NC(=O)[C@@H]2CCCN2C(=O)[C@H](CCCNC(=N)N)NC(=O)[C@H](CCC(=O)O)NC(=O)[C@H](C)N(C)C(=O)[C@H](Cc2ccc(C(F)(F)F)cc2)NC(=O)[C@H](C)N(C)C(=O)[C@H](Cc2ccc(C(F)(F)F)cc2)NC(=O)[C@H]([C@@H](C)O)NC(=O)[C@H]([C@@H](C)O)NC(=O)[C@H](CO)NC1=O [Example 1-11, Ac*-F-V-S-T-T-(p-CF3)F-(N-Me)A-(p-CF3)F-(N-Me)A-E-R-P-C*-G-NH2] ({CH2CO}-FVSTT[Phe(4-CF3)][NMeA][Phe(4-CF3)][NMeA]ERPCG-NH2; thioether N-13)	55

Same assay, conditions: TR-FRET; Human PCSK9 Alexa Fluor 647 and Human LDLR extracellular domain-Europium Kryptate

Compound	IC50 [nM]
CC(C)[C@@H]1NC(=O)[C@H](Cc2ccccc2)NC(=O)CSC[C@@H](C(=O)NCC(N)=O)NC(=O)[C@@H]2CCCN2C(=O)[C@H](CO)NC(=O)[C@H](CCC(=O)O)NC(=O)[C@H](C)N(C)C(=O)[C@H](Cc2ccc(C(F)(F)F)cc2)NC(=O)[C@H](Cc2ccccc2)N(C)C(=O)[C@H](CO)NC(=O)[C@H]([C@@H](C)O)NC(=O)[C@H]([C@@H](C)O)NC(=O)[C@H](CC(=O)O)NC1=O [Example 1-6, Ac*-F-V-D-T-T-S-(N-Me)F-(p-CF3)F-(N-Me)A-E-S-P-C*-G-NH2] ({CH2CO}-FVDTTS[NMeF][Phe(4-CF3)][NMeA]ESPCG-NH2; thioether N-13)	12
CC(C)[C@@H]1NC(=O)[C@H](Cc2ccccc2)NC(=O)CSC[C@@H](C(=O)NCC(N)=O)NC(=O)[C@@H]2CCCN2C(=O)[C@H](CO)NC(=O)[C@H](CCCCN)NC(=O)[C@H](C)N(C)C(=O)[C@H](Cc2ccc(-c3ccccc3)cc2)NC(=O)[C@H](C)N(C)C(=O)[C@H](CO)NC(=O)[C@H]([C@@H](C)O)NC(=O)[C@H]([C@@H](C)O)NC(=O)[C@H](CC(=O)O)NC1=O [Example 1-7, Ac*-F-V-D-T-T-S-(N-Me)A-B-(N-Me)A-K-S-P-C*-G-NH2] ({CH2CO}-FVDTTS[NMeA][Bip][NMeA]KSPCG-NH2; thioether N-13)	410

Source: patent US12209144B2, “Cyclic peptides as proprotein convertase subtilisin/kexin type 9 (PCSK9) inhibitors for the treatment of metabolic disorders” (Novartis AG, priority 2018, dated 2025)
